Measurements: US20090061022A1, “Pharmaceutical composition comprising arsenite for the treatment of malignancy” (priority 2004, published 2009)
Values joined by “and” are separate entries in the source; they are usually repeats but may differ in a detail not shown here. Equal values may be shown once.

Columns and labels:
[1] = test system: panel of 9 human cancer cell lines; assay: Cytotoxic activity, whole panel of 9 human cancer cell lines (means, active/total); format: cell-based
Description: Three kinds of stock solutions were prepared for in vitro cytotoxic activity test. The first solution is DMSO (dimethyl sulfoxide) mixed with sodium meta-arsenite. […] The third solution is DMSO mixed with arsenic acid sodium salt. Those three solutions were diluted with culture medium (RPMI 1640). The final concentrations of DMSO in those three solutions are less than 0.3 vol %.
(§1) Nine kinds of human cancer cell lines out of six kinds of cancers were grown at 37° C. under a controlled atmosphere of 95% air and 5% CO2. The cells were grown on monolayer cultures of RPMI 1640 cell culture medium supplemented with 10% fetal calf serum.
(§2) The grown cells were harvested from exponential phase cultures by trypsinization and counted. The counted cells were placed in a plate, which has ninety six wells. Each well on the plate is in a shape of a flat-bottomed microtitre. Density of the cells in a suspension was adjusted depending on the cell line. The suspension was prepared by diluting the grown cells with the culture medium (RPMI 1640). […] Then add 50 μl of culture medium (RPMI 1640) only to 6 wells, 50 μl/well, among the 96 wells of one plate. It is called controlled. One well is filled with culture medium plus 5-FU. And another 50 μl of culture medium plus one of the stock solutions were added to each of the left 89 wells to allow cells to resume exponential growth.
The cytotoxic activity test was executed with three plates simultaneously to check reliability of the data obtained. The three plates contain the same samples of cancer cells. The three plates were then incubated for 3-7 days under the same controlled atmosphere and cell proliferation was assessed with a modified propodium iodide fluorescence assay. After thawing of the plates, fluorescence was measured using a Millipore Cytofluor 2350-microplate reader (excitation 530 nm emission 620 nm) in order to quantify the total cell number. The assay included untreated and positive controls containing 5-FU.
Growth inhibition is defined as (numbers of cancer cell alive) treated (T)/(number of cells) control (C)×100% (T/C %).

[2] = test system: panel of 12 human cancer cell lines; assay: Cytotoxic activity, whole panel of 12 human cancer cell lines, modified propidium iodide assay; conditions: panel of 12 human cancer cell lines, 4 days
Description: as §1
as §2, with “1640). Concentration of the cells were varied from 5×10^4 to 1×10^5 viable cells/ml. 100 μl of the suspension was placed in each well of the plate.” for “1640).”
(§3) In a further study, the cytotoxic activity profile of sodium meta-arsenite and arsenic acid sodium salt was investigated in different panels containing twelve (12) human cancer cell lines from eight (8) kinds of human cancers. The cancer cell samples were prepared as described in 1-1-B. Propidium iodide fluorescence assay method for this test was modified as the follows.

GXF 251L (gastric) = conditions: resistant
Description: as §1
as §2, with “1640). Concentration of the cells were varied from 5×10^4 to 1×10^5 viable cells/ml. 100 μl of the suspension was placed in each well of the plate.” for “1640).”
as §3

LXFA 629L = LXFA 629L non-small cell lung; resistant
Description: as §1
as §2, with “1640). Concentration of the cells were varied from 5×10^4 to 1×10^5 viable cells/ml. 100 μl of the suspension was placed in each well of the plate.” for “1640).”
as §3

LXFE 66NL = LXFE 66NL non-small cell lung; resistant
Description: as §1
as §2, with “1640). Concentration of the cells were varied from 5×10^4 to 1×10^5 viable cells/ml. 100 μl of the suspension was placed in each well of the plate.” for “1640).”
as §3

RXF393NL (renal) = conditions: resistant
Description: as §1
as §2, with “1640). Concentration of the cells were varied from 5×10^4 to 1×10^5 viable cells/ml. 100 μl of the suspension was placed in each well of the plate.” for “1640).”
as §3

RXF 944LX [3] = assay: Dose finding study in human renal cancer model RXF 944LX in nude mice (i.p. days 0, 7, 14)
Text: In a dose finding study, the potential anticancer activity of sodium meta-arsenite and arsenic acid sodium salt versus arsenic trioxide was examined in the human renal cancer model, RXF 944LX.
(§4) Cancer fragments (1-2 mm in diameter), obtained from xenografts in serial passage in nude mice, were implanted subcutaneously (S.C.) in a flank of male NRMI nude mice (one fragment per mouse). Mice with appropriate cancer volumes (5-7 mm in diameter) were randomly distributed to treatment and control groups (4 mice/group). The start of treatment was day 0. Cancer volume and body weights were measured at least twice per week.
1) Sodium meta-arsenite (3, 10, 30 mg/kg/day), 2) Arsenic acid sodium salt (3, 10, 30 mg/kg/day) and 3) Arsenic trioxide (3, 10, 30 mg/kg/day) were administered intraperitoneally (i.p.) once daily on days 0, 7 and 14.
Stock solution of sodium meta-arsenite and arsenic acid sodium salt (3 mg/ml) were prepared in 5% (w/v) dextrose solution, respectively, to minimize acute arsenic toxicity. For arsenic trioxide, 9 mg of arsenic trioxide was dissolved in 1M NaOH (75 μl) followed by mixing with sterile aqua injectabilia (2175 μl) and sterile 20% (w/v) dextrose in water (500 μl). Further dilution to the desired concentration was done with a 5% dextrose solution to give a final concentration of 3 mg/ml.
(§5) The cancer volume of each animal was determined by two-dimensional measurement using calipers. The volume was calculated according to the formula: (a×b^2)×0.5; wherein a and b represent two perpendicular diameters in which a (length) is the larger diameter and b (width) the smaller diameter.
(§6) Relative cancer volumes (RCV) were calculated for each individual cancer by dividing the cancer volume on day X by the cancer volume on day 0 multiplied by 100%. The cancer volume of a treatment group was expressed as the median RCV of all mice of the group. Median RCV values were used for drawing growth curves and treatment evaluation. Optimal cancer growth inhibition at a particular day within the treatment period was calculated from the median RCV values of the treated (T) versus the controlled (C) group multiplied by 100%. A T/C value<50% was considered as anti-cancer activity.

RXF 944LX [4] = assay: Anticancer activity in RXF 944LX cancer bearing nude mice, intermittent and daily schedules; conditions: for MTD: i.p., RXF 944LX
Description: as §4, §5, §6
In the experiment with renal cancer RXF 944LX, the anticancer activity of the compounds was explored using two administration schedules; 1) intermittent schedule of 4 days×3, and 2) a daily schedule for 2 weeks (days 0-4, 7-11).
The dose levels chosen for sodium meta-arsenite and arsenic acid sodium salt in these schedules were based on the experience in the 1st experiment. Additional small dose finding studies were executed.

[5] = mean over human cancer cell lines tested (9 line panel)
[6] = 32 mg/kg i.p., days 0-4, 7, 14-18

## arsenic acid sodium salt
[1]; 9 cell line panel
  Assessment from comparison of the IC50 values: inactive
[1]; [5]
  IC50: 99 µM
  IC90: 248 µM
  Mean IC50: 30.8 µg/mL
  Mean IC90: 77.5 µg/mL
[1]; mean over human cancer cell lines tested (9 line panel), sodium salt
  Mean IC70: 44.7 μg/ml and 143 μM
[2]
  Mean IC50: 25.5 µg/mL
  Mean IC90: 76.6 µg/mL
[2]; sodium salt
  Mean IC70: 40.1 μg/ml and 129 μM
[2]; read-out: Mean IC50
  IC50: 82 µM
[2]; read-out: Mean IC90
  IC90: 246 µM
GXF 251L (gastric)
  IC70: > 100 µg/mL
LXFA 629L
  IC70: > 100 µg/mL
LXFE 66NL
  IC70: > 100 µg/mL
RXF393NL (renal)
  IC70: > 100 µg/mL
RXF 944LX [3]; 3 mg/kg i.p., days 0, 7, 14
  BW loss % (day): +15 (21) %
  Drug-related deaths: 0/4
  Rating: − (−T/C ≧ 50%)
  SGD (specific growth delay): −0.5
  T/C %: 90%
RXF 944LX [3]; 10 mg/kg i.p., days 0, 7, 14
  BW loss % (day): +10 (21) %
  Drug-related deaths: 0/4
  Rating: − (−T/C ≧ 50%)
  SGD (specific growth delay): −0.2
  T/C %: 74%
RXF 944LX [3]; 30 mg/kg i.p., days 0, 7, 14
  BW loss % (day): +14 (21) %
  Drug-related deaths: 0/4
  Rating: − (−T/C ≧ 50%)
  SGD (specific growth delay): 0.1
  T/C %: 88%
RXF 944LX [3]; 3, 10, 30 mg/kg/day i.p., days 0, 7, 14
  T/C values of the 3 treatment groups: greater than 74%
RXF 944LX [3]; i.p. once daily on days 0, 7 and 14, RXF 944LX bearing nude mice
  Maximum Tolerated Dose (MTD): greater than 30 mg/kg/day
RXF 944LX [4]; 16 mg/kg i.p., days 0-4, 7-11
  BW loss % (day): −8 (14) %
  Drug-related deaths: 2/6
  SGD (specific growth delay): 0
  T/C %: 76%
RXF 944LX [4]; 30 mg/kg i.p., days 0, 4, 8
  BW loss % (day): +25 (14) %
  Drug-related deaths: 1/6
  SGD (specific growth delay): −0.2
  T/C %: 100%
RXF 944LX [4]; [6]
  BW loss % (day): −10 (14) %
  Drug-related deaths: 3/6
RXF 944LX [4]; 45 mg/kg i.p., days 0, 4, 8
  BW loss % (day): +22 (14) %
  Drug-related deaths: 2/6
  SGD (specific growth delay): −0.3
  T/C %: 100%
RXF 944LX [4]; daily schedule (days 0-4, 7-11)
  MTD: 16 mg/kg/day
RXF 944LX [4]; intermittent schedule (4 days×3)
  MTD: 45 mg/kg/day
